Assay [1] addresses T1, glucocorticoid receptor (GR-α) (Homo sapiens, UniProt P04150).
T1 sequence (P04150 1-777): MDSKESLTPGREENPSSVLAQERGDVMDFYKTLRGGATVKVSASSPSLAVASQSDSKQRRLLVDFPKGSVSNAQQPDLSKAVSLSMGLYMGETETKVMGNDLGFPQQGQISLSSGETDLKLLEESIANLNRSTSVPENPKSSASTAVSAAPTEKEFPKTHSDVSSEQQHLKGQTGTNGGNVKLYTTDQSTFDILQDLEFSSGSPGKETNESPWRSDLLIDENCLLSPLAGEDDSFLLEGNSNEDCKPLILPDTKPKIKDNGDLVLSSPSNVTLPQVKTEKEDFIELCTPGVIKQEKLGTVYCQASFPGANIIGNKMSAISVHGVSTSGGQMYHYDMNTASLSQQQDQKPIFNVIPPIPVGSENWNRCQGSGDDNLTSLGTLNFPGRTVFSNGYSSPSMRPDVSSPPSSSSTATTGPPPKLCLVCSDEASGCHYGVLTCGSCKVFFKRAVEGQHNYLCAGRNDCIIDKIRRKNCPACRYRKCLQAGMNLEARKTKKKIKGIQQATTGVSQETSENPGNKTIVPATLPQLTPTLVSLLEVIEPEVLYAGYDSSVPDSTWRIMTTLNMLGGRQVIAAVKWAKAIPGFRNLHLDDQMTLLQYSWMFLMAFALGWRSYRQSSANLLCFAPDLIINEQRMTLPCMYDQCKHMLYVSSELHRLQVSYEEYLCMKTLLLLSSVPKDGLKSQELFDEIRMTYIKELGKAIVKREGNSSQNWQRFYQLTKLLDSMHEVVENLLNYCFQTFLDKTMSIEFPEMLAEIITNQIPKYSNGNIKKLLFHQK
Kind of assay: inhibition of [3H]-dexamethasone binding in intact GR-transfected HEK-293 cells, overnight DBT preincubation ([…] for […] inhibition without preincubation); also transactivation reporter. It is filed as cell-based. Further details: gene NR3C1; human GR-α, transiently expressed in HEK-293 cells.

In assay [2] the target is T1, glucocorticoid receptor (GR-α). Further details: gene NR3C1.

In assay [1], dibutyltin [DBT] displayed a concentration for half-maximal inhibition (IC50) of roughly 50 nM.
`C[C@@H]1C[C@H]2[C@@H]3CCC4=CC(=O)C=C[C@]4(C)[C@@]3(F)[C@@H](O)C[C@]2(C)[C@@]1(O)C(=O)CO` [Dex, dexamethasone]: the “radioligand binding (10 nM [3H]-dexamethasone) and displacement by unlabeled dex” value in assay [2] was “Addition of unlabeled dexamethasone revealed a typical displacement pattern of tritiated dexamethasone in the presence or absence of DBT”.
